The source of these data is PubChem BioAssay (NCI).

Molecules are shown by their SMILES.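 48-hour exposure; five concentrations; linearly interpolated endpoints. At the GI50, growth is halved. TGI: concentration producing complete growth inhibition.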 Bounds are passed on as bounds.

Among the test systems are RPMI-8226 leukemia; TK-10 renal; OVCAR-5 ovarian; UACC-62 melanoma; HT29 colon; K-562 leukemia; SN12C renal; COLO 205 colon; SNB-19 CNS; SF-268 CNS.
Assay in all cases: NCI anticancer screen, dose series, 48 h

In the case of `COC(=O)/C(=C/c1ccc(OC)cc1)C(C(=O)O)=C1CCCCC1`, the TGI in the assay with RPMI-8226 leukemia, in the assay with TK-10 renal, with OVCAR-5 ovarian, in the assay with UACC-62 melanoma, with HT29 colon and in the assay with K-562 leukemia was over 100 µM in each case. Also, the TGI in the assay with SN12C renal, in the assay on COLO 205 colon and with SNB-19 CNS was over 100 µM in each case.
Regarding `CC1(C)C(=O)C(=Cc2ccco2)C1=O`, the TGI in the assay with RPMI-8226 leukemia, in the assay with TK-10 renal, in the assay with SF-268 CNS, with OVCAR-5 ovarian, in the assay on UACC-62 melanoma and in the assay on HT29 colon was over 100 µM in each case. For the same molecule, the TGI with K-562 leukemia, in the assay on SN12C renal and with COLO 205 colon was over 100 µM throughout.
For the molecule `O=C(/C(=N/Nc1ccccc1)c1ccc([N+](=O)[O-])cc1)c1ccc([N+](=O)[O-])cc1`, the TGI with RPMI-8226 leukemia, in the assay with TK-10 renal, in the assay on OVCAR-5 ovarian, in the assay with UACC-62 melanoma, in the assay with HT29 colon and in the assay on K-562 leukemia was over 100 µM each time. Further, the TGI in the assay with SN12C renal, with COLO 205 colon and with SNB-19 CNS was over 100 µM throughout.
Regarding `CC(=O)O[C@H](C[C@H](C(C)C)N(C)C(=O)[C@@H](NC(=O)[C@H]1CCCCN1C)C(C)C)c1cccc(C(=O)N[C@@H](Cc2ccccc2)C[C@H](C)C(=O)O)n1`, the GI50 in the assay on RPMI-8226 leukemia was 0.0213 µM; in the assay on SF-268 CNS, 0.05 µM; in the assay on OVCAR-5 ovarian, 0.248 µM; with UACC-62 melanoma it was 0.0276 µM; in the assay on HT29 colon, 0.0242 µM; with K-562 leukemia it was 0.0103 µM. Also, the GI50 in the assay on SN12C renal is 0.044 µM; in the assay on COLO 205 colon it was 0.0279 µM; in the assay with SNB-19 CNS it was 0.0343 µM. The TGI in the assay on RPMI-8226 leukemia is over 25 µM; with SF-268 CNS, over 25 µM; in the assay with OVCAR-5 ovarian it was over 25 µM; in the assay with UACC-62 melanoma it was over 25 µM; in the assay with HT29 colon, over 8.21 µM; with K-562 leukemia, over 25 µM. Further, the TGI was over 25 µM in the assay on SN12C renal, 0.329 µM in the assay with COLO 205 colon and over 25 µM in the assay on SNB-19 CNS.
`Cc1ccc(C2C(Cl)C(=O)N2NC(=O)c2ccc(N)cc2)cc1` (stereo not drawn): the TGI in the assay on RPMI-8226 leukemia was 78.9 µM; in the assay with TK-10 renal, over 100 µM; with OVCAR-5 ovarian it was 47.9 µM; in the assay on UACC-62 melanoma, 31.4 µM; in the assay on HT29 colon it was 39.9 µM; in the assay on K-562 leukemia, 61.2 µM. In addition, the TGI in the assay on SN12C renal is 52.2 µM; with COLO 205 colon it was 44.6 µM; in the assay on SNB-19 CNS it was 33.5 µM.
In the case of `Oc1c(O)c(Cl)c(Cl)c(Cl)c1Cl`, the GI50 in the assay on RPMI-8226 leukemia was 2.23 µM; in the assay with TK-10 renal it was 9.42 µM; with SF-268 CNS it was 3.09 µM; in the assay on OVCAR-5 ovarian, 9.62 µM; in the assay on UACC-62 melanoma, 2.95 µM; in the assay on HT29 colon, 4.89 µM. Also, the GI50 was 3.49 µM with K-562 leukemia, 3.79 µM in the assay with SN12C renal and 12.5 µM with COLO 205 colon. Further, the TGI is 7.38 µM in the assay with RPMI-8226 leukemia; 47.7 µM with TK-10 renal; over 100 µM with SF-268 CNS; 42.5 µM with OVCAR-5 ovarian; 10.2 µM with UACC-62 melanoma; 22.4 µM with HT29 colon. Moreover, the figures for the TGI in the assay with K-562 leukemia, with SN12C renal and in the assay with COLO 205 colon were over 100 µM, 50 µM and 33.7 µM, respectively.
`O=C([CH-]C(=O)c1ccccc1)c1ccccc1.O=C([CH-]C(=O)c1ccccc1)c1ccccc1.O=C([CH-]C(=O)c1ccccc1)c1ccccc1.[Cl-].[Zr+4]`: the GI50 in the assay on RPMI-8226 leukemia was 16.6 µM; in the assay with TK-10 renal, 27.6 µM; in the assay with SF-268 CNS it was 15.8 µM; in the assay with OVCAR-5 ovarian it was 53.8 µM; in the assay with UACC-62 melanoma, 20.3 µM; with HT29 colon, 29 µM. Moreover, the GI50 in the assay with K-562 leukemia was 8.02 µM; in the assay with SN12C renal, 35.9 µM; in the assay with COLO 205 colon it was 25.7 µM. In addition, the TGI in the assay on RPMI-8226 leukemia is over 100 µM; with TK-10 renal, 72.4 µM; with SF-268 CNS, over 100 µM; in the assay with OVCAR-5 ovarian, over 100 µM; in the assay on UACC-62 melanoma it was 91.2 µM; in the assay on HT29 colon, over 100 µM. The TGI is 25.5 µM in the assay with K-562 leukemia, over 100 µM in the assay on SN12C renal and 78 µM with COLO 205 colon.
Take `Cc1cccc(Nc2cc(Cl)nc(SCC(=O)O)n2)c1C`: the TGI with RPMI-8226 leukemia, in the assay on TK-10 renal, in the assay with OVCAR-5 ovarian, in the assay on UACC-62 melanoma, in the assay with HT29 colon and with K-562 leukemia was over 100 µM each time. The TGI in the assay with SN12C renal, with COLO 205 colon and in the assay with SNB-19 CNS was over 100 µM throughout.
For the molecule `Cc1ccccc1N=Nc1c(-c2ccccc2)nn(C(=O)CC(=O)Nc2cccc(Cl)c2)c1-c1ccccc1`, the TGI is 21.2 µM in the assay with RPMI-8226 leukemia; over 31.6 µM in the assay on SF-268 CNS; over 31.6 µM with OVCAR-5 ovarian; over 31.6 µM in the assay on UACC-62 melanoma; 23.4 µM in the assay with HT29 colon; over 31.6 µM in the assay with K-562 leukemia. Moreover, the TGI was 22.9 µM in the assay on SN12C renal, 20.8 µM in the assay on COLO 205 colon and over 100 µM with SNB-19 CNS.
